# pIC50: −log10 of the molar value.
# What was measured:
# [1] = target: T1, purified recombinant Cdc25-C enzyme (MBP-Cdc25C protein) (Homo sapiens, UniProt P30307); test: Phosphatase activity of the purified recombinant Cdc25C enzyme (OMFP dephosphorylation, fluorescence); format: biochemical; details: OMFP 500 μM, 4 hours at 30° C.
# T1 construct: made in house
# T1 sequence (P30307 1-473): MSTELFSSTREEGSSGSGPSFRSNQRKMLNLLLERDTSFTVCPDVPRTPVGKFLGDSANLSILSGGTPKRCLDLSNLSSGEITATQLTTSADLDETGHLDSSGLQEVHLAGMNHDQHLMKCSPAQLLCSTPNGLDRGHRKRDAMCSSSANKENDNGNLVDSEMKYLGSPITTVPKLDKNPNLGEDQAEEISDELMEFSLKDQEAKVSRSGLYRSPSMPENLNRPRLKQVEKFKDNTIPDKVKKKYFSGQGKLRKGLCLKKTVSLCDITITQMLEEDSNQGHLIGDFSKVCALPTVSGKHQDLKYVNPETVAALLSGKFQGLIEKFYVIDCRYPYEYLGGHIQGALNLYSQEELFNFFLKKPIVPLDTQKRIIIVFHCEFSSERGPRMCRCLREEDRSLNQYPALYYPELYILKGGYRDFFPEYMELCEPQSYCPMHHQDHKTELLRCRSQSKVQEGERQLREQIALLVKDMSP
# Method: The phosphatase activity of the MBP-Cdc25C protein is evaluated through its dephosphorylation of 3-O-methylfluorescein-phosphate (OMFP) to form 3-O-methylfluorescein (OMF), determining the fluorescence of the reaction product at 475 nm. This assay can be used to identify inhibitors of the recombinant Cdc25 enzyme. The preparation of the MBP-Cdc25C fusion protein is described in patent application PCT WO 01/44467.
# The reaction is performed in 384-well plates in a final volume of 50 μl. The MBP-Cdc25C protein (prepared as described hereinabove) is stored in the following elution buffer: 20 mM Tris-HCl pH 7.4; 250 mM NaCl; 1 mM EDTA; 1 mM dithiothreitol (DTT); 10 mM maltose. It is diluted to a concentration of 60 μM in the following reaction buffer: 50 mM Tris-HCl pH 8.2; 50 mM NaCl; 1 mM DTT; 20% glycerol. The background noise is determined using with the buffer without addition of the enzyme. The products are tested at decreasing concentrations from 40 μM. The reaction is initiated by the addition of a solution OMFP to a final concentration of 500 μM (prepared immediately before use from a 12.5 mM stock solution in 100% DMSO (Sigma #M2629)). After 4 hours at 30° C. in a disposable 384-well plate, the fluorescence measured at OD 475 nm is read on a Victor^2 plate reader (EGG-Wallac). The concentration that produces 50% inhibition of the enzyme reaction is calculated from three independent experiments. Only the values that fall within the linear part of the sigmoid curve are used for the linear regression analysis.
# [2] = system: Mia-PaCa2 (human pancreas cancer cells); test: Anti-proliferative activity on Mia-Paca2 cell line (WST1 colorimetric test); format: cell-based; details: MIA PaCa-2, 96 h, 96 hours treatment, read-out: IC50 on proliferation of the Mia-Paca2 cell line
# Method: (§1) By way of an example, the effect of treating two human cell lines Mia-Paca2 and DU145 with the compounds of the examples described hereinbefore will be studied. The cell lines DU145 (human prostate cancer cells) and Mia-PaCa2 (human pancreas cancer cells) were obtained from the American Tissue Culture Collection (Rockville, Md., USA). A 96-well plate was inoculated on day 0 with cells placed in 80 μl of Dulbecco's modified Eagle's medium (Gibco-Brl, Cergy-Pontoise, France) with 10% heat-inactivated foetal calf serum (Gibco-Brl, Cergy-Pontoise, France), 50000 units/1 of penicillin and 50 mg/l of streptomycin (Gibco-Brl, Cergy-Pontoise, France), and 2 mM of glutamine (Gibco-Brl, Cergy-Pontoise, France). The cells were treated on day 1 with increasing concentrations of each test compound up to 10 μM for 96 hours. At the end of this period, cell proliferation is quantified by means of a colorimetric test based on cleavage of the tetrazolium salt WST1 by the mitochondrial dehydrogenases in the viable cells, resulting in formation of formazan (Boehringer Mannheim, Meylan, France). These tests are performed in duplicate with 8 determinations per concentration tested. For each compound to be tested, the values within the linear part of the sigmoid curve were subjected to linear regression analysis and used to estimate the IC50 inhibitory concentration. The products are solubilised in dimethylsulfoxide (DMSO) at a concentration of 10^−2 M and used in culture with a final DMSO concentration of 0.1%.
# [3] = system: DU145 (human prostate cancer cells); test: Anti-proliferative activity on DU-145 cell line (WST1 colorimetric test); format: cell-based; details: DU-145, 96 h, 96 hours treatment, read-out: IC50 on the proliferation of the DU-145 cell line
# Method: as §1
SMILES,pIC50 [1],pIC50 [2],pIC50 [3],melting point [°C]
"CN(CCCNC(=O)Nc1ccc(Cl)c(C(F)(F)F)c1)CCCNc1cc(N2CCCC2)nc(N2CCCC2)n1 [Example 21, N-[4-chloro-3-(trifluoromethyl)phenyl]-N′-{3-[{3-[(2,6-dipyrrolidin-1-ylpyrimidin-4-yl)amino]propyl}(methyl)amino]propyl}urea]",≥ 5.30,≥ 5.30,≥ 5.30,–
"CN(CCNC(=S)Nc1ccc(OC(F)(F)F)cc1)CCNc1cc(N2CCCC2)nc(N2CCCC2)n1 [Example 23, N-{2-[{2-[(2,6-dipyrrolidin-1-ylpyrimidin-4-yl)amino]ethyl}(methyl)amino]ethyl}-N′-[4-(trifluoromethoxy)phenyl]thiourea]",≥ 5.30,–,≥ 5.30,118 to 120
"CN(CCNC(=S)Nc1ccc(F)cc1)CCNc1cc(N2CCCC2)nc(N2CCCC2)n1 [Example 24, N-{2-[{2-[(2,6-dipyrrolidin-1-ylpyrimidin-4-yl)amino]ethyl}(methyl)amino]ethyl}-N′-(4-fluorophenyl)thiourea]",≥ 5.30,–,≥ 5.30,115 to 117
"CN(CCNC(=S)Nc1cccnc1)CCNc1cc(N2CCCC2)nc(N2CCCC2)n1 [Example 26, N-{2-[{2-[(2,6-dipyrrolidin-1-ylpyrimidin-4-yl)amino]ethyl}(methyl)amino]ethyl}-N′-pyridin-3-ylthiourea]",≥ 6.00,≥ 5.30,–,107 to 109
"CN(CCNC(=S)NCc1ccco1)CCNc1cc(N2CCCC2)nc(N2CCCC2)n1 [Example 29, N-{2-[{2-[(2,6-dipyrrolidin-1-ylpyrimidin-4-yl)amino]ethyl}(methyl)amino]ethyl}-N′-(2-furylmethyl)thiourea]",≥ 5.30,≥ 5.30,≥ 5.30,–
"CN(CCNC(=S)Nc1ccc(Oc2ccccc2)nc1)CCNc1cc(N2CCCC2)nc(N2CCCC2)n1 [Example 30, N-{2-[{2-[(2,6-dipyrrolidin-1-ylpyrimidin-4-yl)amino]ethyl}(methyl)amino]ethyl}-N′-(6-phenoxypyridin-3-yl)thiourea]",≥ 5.30,–,≥ 5.30,104 to 106
"CN(CCNC(=S)Nc1ccc(-c2cnco2)cc1)CCNc1cc(N2CCCC2)nc(N2CCCC2)n1 [Example 33, N-{2-[{2-[(2,6-dipyrrolidin-1-ylpyrimidin-4-yl)amino]ethyl}(methyl)amino]ethyl}-N′-[4-(1,3-oxazol-5-yl)phenyl]thiourea]",≥ 5.30,–,≥ 5.30,104 to 106
"COc1ccc(NC(=S)NCCN(C)CCNc2cc(N3CCCC3)nc(N3CCCC3)n2)cc1 [Example 35, N-{2-[{2-[(2,6-dipyrrolidin-1-ylpyrimidin-4-yl)amino]ethyl}(methyl)amino]ethyl}-N′-(4-methoxyphenyl)thiourea]",≥ 5.30,–,≥ 5.30,127 to 129
"CN(CCNC(=S)Nc1ccc(Oc2ccccc2)cc1)CCNc1cc(N2CCCC2)nc(N2CCCC2)n1 [Example 36, N-{2-[{2-[(2,6-dipyrrolidin-1-ylpyrimidin-4-yl)amino]ethyl}(methyl)amino]ethyl}-N′-(4-phenoxyphenyl)thiourea]",≥ 5.30,–,≥ 5.30,79 to 81
"CN(CCNC(=S)Nc1cccc2ccccc12)CCNc1cc(N2CCCC2)nc(N2CCCC2)n1 [Example 37, N-{2-[{2-[(2,6-dipyrrolidin-1-ylpyrimidin-4-yl)amino]ethyl}(methyl)amino]ethyl}-N′-1-naphthylthiourea]",≥ 5.30,–,≥ 5.30,87 to 89
"CN(CCNC(=S)Nc1ccc(C(C)(C)C)cc1)CCNc1cc(N2CCCC2)nc(N2CCCC2)n1 [Example 44, N-(4-tert-butylphenyl)-N′-{2-[{2-[(2,6-dipyrrolidin-1-ylpyrimidin-4-yl)amino]ethyl}(methyl)amino]ethyl}thiourea]",≥ 6.00,–,≥ 5.30,192 to 194
"CSc1ccc(NC(=S)NCCN(C)CCNc2cc(N3CCCC3)nc(N3CCCC3)n2)cc1 [Example 51, N-{2-[{2-[(2,6-dipyrrolidin-1-ylpyrimidin-4-yl)amino]ethyl}(methyl)amino]ethyl}-N′-[4-(methylthio)phenyl]thiourea]",≥ 6.00,–,≥ 5.30,67 to 69
"CN(C)CCN(C)c1cc(NCCN(C)CCNC(=S)Nc2ccc(Cl)cc2)nc(N(C)CCN(C)C)n1 [Example 64, N-{2-[[2-({2,6-bis[[2-(dimethylamino)ethyl](methyl)amino]pyrimidin-4-yl}amino)ethyl](methyl)amino]ethyl}-N′-(4-chlorophenyl)thiourea]",≥ 5.30,≥ 5.30,–,–
"CN(CCNC(=S)Nc1ccc(Cl)cc1)CCNc1cc(N2CCCCC2)nc(N2CCCCC2)n1 [Example 69, N-(4-chlorophenyl)-N′-{2-[{2-[(2,6-dipiperidin-1-ylpyrimidin-4-yl)amino]ethyl}(methyl)amino]ethyl}thiourea]",≥ 6.00,–,≥ 5.30,76 to 78
"CCNc1cc(NCCN(C)CCNC(=S)Nc2ccc(Cl)cc2)nc(NCC)n1 [Example 79, N-{2-[(2-{[2,6-bis(ethylamino)pyrimidin-4-yl]amino}ethyl)(methyl)amino]ethyl}-N′-(4-chlorophenyl)thiourea]",–,≥ 5.30,–,142 to 144
"CC(Oc1ccccc1)C(=O)NCCN(C)CCNc1cc(N2CCCC2)nc(N2CCCC2)n1 (stereo not shown) [Example 84, N-{2-[{2-[(2,6-dipyrrolidin-1-ylpyrimidin-4-yl)amino]ethyl}(methyl)amino]ethyl}-2-phenoxypropanamide]",≥ 5.30,≥ 5.30,–,110 to 112
"CN(CCNC(=O)c1cccc2c1-c1ccccc1C2=O)CCNc1cc(N2CCCC2)nc(N2CCCC2)n1 [Example 85, N-{2-[{2-[(2,6-dipyrrolidin-1-ylpyrimidin-4-yl)amino]ethyl}(methyl)amino]ethyl}-9-oxo-9H-fluorene-4-carboxamide]",≥ 5.30,≥ 5.30,–,139 to 140
"CN(CCNC(=O)C1CCN(c2nccc(C(F)(F)F)n2)CC1)CCNc1cc(N2CCCC2)nc(N2CCCC2)n1 [Example 86, N-{2-[{2-[(2,6-dipyrrolidin-1-ylpyrimidin-4-yl)amino]ethyl}(methyl)amino]ethyl}-1-[4-(trifluoromethyl)pyrimidin-2-yl]piperidine-4-carboxamide]",≥ 5.30,≥ 5.30,–,171 to 173
"CN(CCNc1cc(N2CCCC2)nc(N2CCCC2)n1)CCNS(=O)(=O)c1ccc([N+](=O)[O-])cc1 [Example 87, N-{2-[{2-[(2,6-dipyrrolidin-1-ylpyrimidin-4-yl)amino]ethyl}(methyl)amino]ethyl}-4-nitrobenzenesulfonamide]",≥ 6.00,≥ 5.30,–,144 to 145

# Reference: patent US20100137275A1 (IPSEN PHARMA S.A.S., priority 2007, published 2010)
